Test results from PubChem BioAssay (NCI).
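Each compound was tested at five concentrations against cells in 96-well plates for 48 hours. At the GI50, growth is halved. TGI: total growth inhibition.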

Legend:
Experiment in all cases: NCI anticancer screen, dose series, 48 h
[1] = test system: SR leukemia
[2] = test system: HCT-116 colon
[3] = test system: KM12 colon
[4] = test system: SF-295 CNS
[5] = test system: SW-620 colon
[6] = test system: NCI-H23 lung
[7] = test system: SK-OV-3 ovarian
[8] = test system: HT29 colon
[9] = test system: ACHN renal
[10] = test system: SK-MEL-5 melanoma
[11] = test system: MDA-MB-231 breast
[12] = test system: OVCAR-4 ovarian
[13] = test system: M14 melanoma
[14] = test system: SF-268 CNS
[15] = test system: OVCAR-8 ovarian
[16] = test system: TK-10 renal
[17] = test system: SNB-19 CNS
[18] = test system: K-562 leukemia
[19] = test system: RXF 393 renal
[20] = test system: HS 578T breast
[21] = test system: DU-145 prostate
[22] = test system: SF-539 CNS
[23] = test system: CAKI-1 renal
[24] = test system: HOP-92 NSCLC
[25] = test system: NCI-H226 lung
[26] = test system: HOP-62 NSCLC
[27] = test system: HCT-15 colon
[28] = test system: SK-MEL-28 melanoma
[29] = test system: SK-MEL-2 melanoma
[30] = test system: OVCAR-3 ovarian
[31] = test system: UACC-257 melanoma
[32] = test system: T-47D breast
[33] = test system: SN12C renal
[34] = test system: MALME-3M melanoma
[35] = test system: HCC-2998 colon
[36] = test system: NCI-H522 lung
[37] = test system: CCRF-CEM leukemia
[38] = test system: A549 NSCLC
[39] = test system: 786-0 renal
[40] = test system: RPMI-8226 leukemia
[41] = test system: EKVX NSCLC
[42] = test system: U251 CNS
[43] = test system: IGROV1 ovarian
[44] = test system: MCF7 breast
[45] = test system: BT-549 breast
[46] = test system: UO-31 renal
[47] = test system: UACC-62 melanoma
[48] = test system: SNB-75 CNS
[49] = test system: A498 renal
[50] = test system: MOLT-4 leukemia
[51] = test system: COLO 205 colon
[52] = test system: NCI/ADR-RES ovarian
[53] = test system: NCI-H460 lung
[54] = test system: HL-60(TB) leukemia
[55] = test system: OVCAR-5 ovarian
[56] = test system: PC-3 prostate
[57] = test system: LOX IMVI melanoma
[58] = test system: MDA-MB-435

Work on COc1cc(/C=C2\CN(S(=O)(=O)c3ccc(C)cc3)C/C(=C\c3cc(CN4CCOCC4)c(O)c(OC)c3)C2=O)cc(CN2CCOCC2)c1O yielded a GI50 [1] of 0.342 µM, a TGI [1] greater than 100 µM and a GI50 [2] of 3.25 µM. It also gave a TGI [2] greater than 100 µM, a GI50 [3] of 0.377 µM and a TGI [3] of 25.5 µM. For the same compound, the GI50 [4] was 12.5 µM, the TGI [4] was 40.2 µM and the GI50 [5] was 1.35 µM. It also gave a TGI [5] greater than 100 µM, a GI50 [6] of 3.31 µM and a TGI [6] greater than 100 µM. For the same compound, the GI50 [7] was 7.89 µM, the TGI [7] was 56.5 µM and the GI50 [8] was 0.346 µM. It also gave a TGI [8] greater than 100 µM, a GI50 [9] of 1.47 µM and a TGI [9] of 22.5 µM. For the same compound, the GI50 [10] was 4.15 µM, the TGI [10] was greater than 100 µM and the GI50 [11] was 2.27 µM. It also gave a TGI [11] of 92.5 µM, a GI50 [12] of 4.11 µM and a TGI [12] greater than 100 µM. For the same compound, the GI50 [13] was 0.689 µM, the TGI [13] was greater than 100 µM and the GI50 [14] was 0.935 µM. The TGI [14] was 81.2 µM, the GI50 [15] was 0.323 µM and the TGI [15] was greater than 100 µM. It also gave a GI50 [16] of 15.4 µM, a TGI [16] of 59.8 µM and a GI50 [17] of 15.8 µM. It also gave a TGI [17] greater than 100 µM, a GI50 [18] of 0.561 µM and a TGI [18] greater than 100 µM. For the same compound, the GI50 [19] was 2.81 µM, the TGI [19] was 29.5 µM and the GI50 [20] was 0.721 µM. The TGI [20] was 19.8 µM, the GI50 [21] was 0.928 µM and the TGI [21] was greater than 100 µM. It also gave a GI50 [22] of 7.21 µM, a TGI [22] of 33 µM and a GI50 [23] of 1.53 µM. For the same compound, the TGI [23] was greater than 100 µM, the GI50 [24] was 17.6 µM and the TGI [24] was 71.8 µM. For the same compound, the GI50 [25] was 12.7 µM, the TGI [25] was 85.8 µM and the GI50 [26] was 0.652 µM. For the same compound, the TGI [26] was 38 µM, the GI50 [27] was 1.9 µM and the TGI [27] was greater than 100 µM. It also gave a GI50 [28] of 4.85 µM, a TGI [28] greater than 100 µM and a GI50 [29] of 21.9 µM. The TGI [29] was 65.1 µM, the GI50 [30] was 0.611 µM and the TGI [30] was greater than 100 µM. It also gave a GI50 [31] of 2.06 µM, a TGI [31] greater than 100 µM and a GI50 [32] of 51.7 µM. It also gave a TGI [32] greater than 100 µM, a GI50 [33] of 0.524 µM and a TGI [33] of 15.5 µM. For the same compound, the GI50 [34] was 1.75 µM, the TGI [34] was 65.8 µM and the GI50 [35] was 2.05 µM. For the same compound, the TGI [35] was 21.7 µM, the GI50 [36] was 2.34 µM and the TGI [36] was 32.6 µM. The GI50 [37] was 0.513 µM, the TGI [37] was greater than 100 µM and the GI50 [38] was 13 µM. The TGI [38] was greater than 100 µM, the GI50 [39] was 17.9 µM and the TGI [39] was 59.4 µM. The GI50 [40] was 2.34 µM, the TGI [40] was greater than 100 µM and the GI50 [41] was 16.9 µM. It also gave a TGI [41] of 92.5 µM, a GI50 [42] of 0.782 µM and a TGI [42] greater than 100 µM. The GI50 [43] was 1.09 µM, the TGI [43] was 22.8 µM and the GI50 [44] was 0.394 µM. The TGI [44] was greater than 100 µM, the GI50 [45] was 17.6 µM and the TGI [45] was 67.2 µM. The GI50 [46] was 20.4 µM, the TGI [46] was greater than 100 µM and the GI50 [47] was 0.586 µM. The TGI [47] was 16.4 µM, the GI50 [48] was 0.527 µM and the TGI [48] was 19.1 µM. For the same compound, the GI50 [49] was 12.4 µM, the TGI [49] was 54.4 µM and the GI50 [50] was 0.321 µM. The TGI [50] was greater than 100 µM, the GI50 [51] was 1.66 µM and the TGI [51] was greater than 100 µM. For the same compound, the GI50 [52] was 55 µM, the TGI [52] was greater than 100 µM and the GI50 [53] was 0.337 µM. For the same compound, the TGI [53] was 2.52 µM, the GI50 [54] was 0.853 µM and the TGI [54] was 27.4 µM. It also gave a GI50 [55] greater than 100 µM, a TGI [55] greater than 100 µM and a GI50 [56] of 1.24 µM. The TGI [56] was greater than 100 µM.

O=C(CNC(=O)c1ccccc1)Oc1c(Cl)c(Cl)c(Cl)c(Cl)c1Cl gave a TGI [1] greater than 100 µM, a TGI [2] greater than 100 µM and a TGI [57] greater than 100 µM. It also gave a TGI [3] of 45.6 µM, a TGI [4] of 79.9 µM and a TGI [5] of 67.1 µM. The TGI [6] was greater than 100 µM, the TGI [7] was greater than 100 µM and the TGI [8] was greater than 100 µM. For the same compound, the TGI [9] was 65.1 µM, the TGI [11] was 66.1 µM and the TGI [12] was greater than 100 µM. It also gave a TGI [13] greater than 100 µM, a TGI [14] greater than 100 µM and a TGI [15] of 64 µM. The TGI [16] was 94.1 µM, the TGI [17] was greater than 100 µM and the TGI [18] was greater than 100 µM. It also gave a TGI [19] greater than 100 µM, a TGI [20] of 67.6 µM and a TGI [21] of 49.9 µM. It also gave a TGI [22] of 95.1 µM, a TGI [23] of 54.9 µM and a TGI [58] of 94.1 µM. It also gave a TGI [25] of 88.6 µM, a TGI [26] greater than 100 µM and a TGI [27] greater than 100 µM. The TGI [28] was greater than 100 µM, the TGI [29] was 94.1 µM and the TGI [30] was 53.3 µM. It also gave a TGI [31] of 54.9 µM, a TGI [32] greater than 100 µM and a TGI [33] greater than 100 µM. The TGI [34] was 57.1 µM, the TGI [35] was 60.6 µM and the TGI [36] was 83.8 µM. The TGI [37] was greater than 100 µM, the TGI [38] was greater than 100 µM and the TGI [39] was greater than 100 µM. For the same compound, the TGI [40] was 78.3 µM, the TGI [41] was 48 µM and the TGI [42] was greater than 100 µM. It also gave a TGI [43] of 63.5 µM, a TGI [44] greater than 100 µM and a TGI [45] of 58.1 µM. For the same compound, the TGI [46] was 45.2 µM, the TGI [47] was 53.8 µM and the TGI [48] was greater than 100 µM. For the same compound, the TGI [50] was greater than 100 µM, the TGI [51] was greater than 100 µM and the TGI [52] was 82.5 µM. It also gave a TGI [53] greater than 100 µM, a TGI [54] of 77.5 µM and a TGI [55] greater than 100 µM. For the same compound, the TGI [56] was 61.4 µM.

Work on CCOC(=O)/C(=N/Nc1ccc(C)cc1)N1C(=S)C=C(C)NN(C)C1=S yielded a TGI [1] greater than 100 µM, a TGI [2] greater than 100 µM and a TGI [3] greater than 100 µM. For the same compound, the TGI [4] was 39.3 µM, the TGI [5] was greater than 100 µM and the TGI [6] was greater than 100 µM. For the same compound, the TGI [7] was greater than 100 µM, the TGI [8] was greater than 100 µM and the TGI [9] was greater than 100 µM. It also gave a TGI [10] greater than 100 µM, a TGI [11] greater than 100 µM and a TGI [12] greater than 100 µM. The TGI [13] was greater than 100 µM, the TGI [14] was greater than 100 µM and the TGI [15] was greater than 100 µM. For the same compound, the TGI [16] was greater than 100 µM, the TGI [17] was greater than 100 µM and the TGI [18] was greater than 100 µM. It also gave a TGI [19] of 83.7 µM, a TGI [20] greater than 100 µM and a TGI [21] greater than 100 µM. The TGI [22] was greater than 100 µM, the TGI [23] was greater than 100 µM and the TGI [24] was greater than 100 µM. The TGI [58] was greater than 100 µM, the TGI [27] was greater than 100 µM and the TGI [28] was greater than 100 µM. It also gave a TGI [29] greater than 100 µM, a TGI [30] greater than 100 µM and a TGI [31] greater than 100 µM. It also gave a TGI [32] greater than 100 µM, a TGI [33] greater than 100 µM and a TGI [35] greater than 100 µM. For the same compound, the TGI [36] was greater than 100 µM, the TGI [37] was greater than 100 µM and the TGI [38] was greater than 100 µM. The TGI [40] was greater than 100 µM, the TGI [41] was greater than 100 µM and the TGI [42] was 55.5 µM. For the same compound, the TGI [43] was greater than 100 µM, the TGI [44] was greater than 100 µM and the TGI [45] was greater than 100 µM. It also gave a TGI [46] greater than 100 µM, a TGI [47] greater than 100 µM and a TGI [48] greater than 100 µM. The TGI [50] was greater than 100 µM, the TGI [51] was greater than 100 µM and the TGI [52] was greater than 100 µM. For the same compound, the TGI [53] was greater than 100 µM, the TGI [54] was greater than 100 µM and the TGI [55] was greater than 100 µM.
